Results published in patent US20070128217A1 (priority 2003, published 2007).

Tests used:
[1] = system: recombinant human anti-SARS-CoV antibody 03-018; type: binding; design: Binding of antibody 03-018 to linear peptides of the N protein of SARS-CoV Urbani / Binding of antibody 03-018 to looped/cyclic peptides of the N protein of SARS-CoV Urbani: unit not given here
[2] = system: antibodies in sera from SARS patients (sera 1a, 1b, 2, 6, 37, 62, London, SARS-yellow, SARS-green); type: binding, human; design: Binding of serum 6 to linear peptides of protein X1 of SARS-CoV Urbani / Binding of serum 37 to linear peptides of protein X1 of SARS-CoV Urbani / Binding of serum 6 to looped/cyclic peptide (PEPSCAN-ELISA) / Binding of serum 37 to looped/cyclic peptide (PEPSCAN-ELISA) / Binding of serum 37 to looped/cyclic peptides of protein X1 of SARS-CoV Urbani / Binding of serum 6 to linear peptides of protein X2 / Binding of serum 37 to linear peptides of protein X2 / Binding of serum 37 to looped/cyclic peptides of protein X2 of SARS-CoV Urbani / Binding of serum 6 to linear peptides of protein M of SARS-CoV Urbani / Binding of serum 37 to linear peptides of protein M of SARS-CoV Urbani / Binding of serum 6 to looped/cyclic peptides of protein M of SARS-CoV Urbani / Binding of serum 37 to looped/cyclic peptides of protein M of SARS-CoV Urbani / Binding of serum 6 to linear peptides of protein X3 of SARS-CoV Urbani / Binding of serum 37 to linear peptides of protein X3 of SARS-CoV Urbani / Binding of serum 37 to looped/cyclic peptides of protein X3 of SARS-CoV Urbani / Binding of serum 6 to linear peptides of protein X4 of SARS-CoV Urbani / Binding of serum 37 to linear peptides of protein X4 of SARS-CoV Urbani / Binding of serum 37 to looped/cyclic peptides of protein X4 of SARS-CoV Urbani / Binding of serum 6 to linear peptides of protein X5 of SARS-CoV Urbani / Binding of serum 37 to linear peptides of protein X5 of SARS-CoV Urbani / Binding of serum 37 to looped/cyclic peptides of protein X5 of SARS-CoV Urbani / Binding of serum 6 to linear peptides of protein N of SARS-CoV Urbani / Binding of serum 37 to linear peptides of protein N of SARS-CoV Urbani / Binding of serum 6 to linear peptide (PEPSCAN-ELISA) / Binding of serum 1a to looped/cyclic peptides of protein N of SARS-CoV Urbani / Binding of serum 1b to looped/cyclic peptides of protein N of SARS-CoV Urbani / Binding of serum 2 to looped/cyclic peptides of protein N of SARS-CoV Urbani / Binding of serum 6 to looped/cyclic peptides of protein N of SARS-CoV Urbani / Binding of serum 37 to looped/cyclic peptides of protein N of SARS-CoV Urbani / Binding of serum 62 to looped/cyclic peptides of protein N of SARS-CoV Urbani / Binding of serum London to looped/cyclic peptides of protein N of SARS-CoV Urbani / Binding of serum SARS-green to looped/cyclic peptides of protein N of SARS-CoV Urbani: unit not given here
[3] = system: rabbit serum obtained by immunizing a rabbit with the SARS-CoV strain Frankfurt 1; type: binding; design: Binding of a rabbit serum to linear peptides / Binding of a rabbit serum to looped peptides / Rabbit serum linear peptides / Rabbit serum looped peptides / Binding of a rabbit serum to linear peptides of protein N of SARS-CoV Urbani (Rabbit serum linear peptides) / Binding of a rabbit serum to looped/cyclic peptides of protein N of SARS-CoV Urbani (Rabbit serum looped peptides): unit not given here
[4] = system: control sera (pooled serum of ten healthy LUMC hospital workers; commercial negative donor pooled serum from the Dutch bloodbank); type: binding, human; design: Binding of Control serum LUMC to linear peptides / Binding of Control serum Blood-bank to linear peptides / Binding of Control serum LUMC to looped peptides / Binding of Control Serum Blood-Bank to Looped peptides / Binding of Control serum LUMC to linear peptides of the protein M of SARS-CoV Urbani / Binding of Control serum Blood-bank to linear peptides of the protein M of SARS-CoV Urbani / Binding of Control serum LUMC to looped peptides of the protein M of SARS-CoV Urbani / Binding of Control Serum Blood-Bank to Looped peptides of the protein M of SARS-CoV Urbani: unit not given here

Sequence	Binding of antibody 03-018 to linear peptides of the N protein of SARS-CoV Urbani [1]	Binding of antibody 03-018 to looped/cyclic peptides of the N protein of SARS-CoV Urbani [1]	Binding of serum 1a to linear peptides of protein N of SARS-CoV Urbani [2]	Binding of serum 1a to looped/cyclic peptides of protein N of SARS-CoV Urbani [2]	Binding of serum 1b to linear peptides of protein N of SARS-CoV Urbani [2]	Binding of serum 1b to looped/cyclic peptides of protein N of SARS-CoV Urbani [2]	Binding of serum 2 to linear peptides of protein N of SARS-CoV Urbani [2]	Binding of serum 2 to looped/cyclic peptides of protein N of SARS-CoV Urbani [2]	Binding of serum 6 to linear peptides of protein N of SARS-CoV Urbani [2]	Binding of serum 6 to looped/cyclic peptides of protein N of SARS-CoV Urbani [2]	Binding of serum 37 to linear peptides of protein N of SARS-CoV Urbani [2]	Binding of serum 37 to looped/cyclic peptides of protein N of SARS-CoV Urbani [2]	Binding of serum 62 to linear peptides of protein N of SARS-CoV Urbani [2]	Binding of serum 62 to looped/cyclic peptides of protein N of SARS-CoV Urbani [2]	Binding of serum London to linear peptides of protein N of SARS-CoV Urbani [2]	Binding of serum London to looped/cyclic peptides of protein N of SARS-CoV Urbani [2]	Binding of serum SARS-green to linear peptides of protein N of SARS-CoV Urbani [2]	Binding of serum SARS-green to looped/cyclic peptides of protein N of SARS-CoV Urbani [2]	Binding of serum SARS-yellow to linear peptides of protein N of SARS-CoV Urbani [2]	Binding of serum SARS-yellow to looped/cyclic peptides of protein N of SARS-CoV Urbani [2]	also measured
ANKEGIVWVATEGAL	0.1	0.2	0.2	0.4	0.1	0.3	0.2	0.3	0.2	0.2	0.8	0.6	0.7	0.5	0.4	0.3	0.4	0.4	0.7	0.6	Binding of a rabbit serum to linear peptides of protein N of SARS-CoV Urbani (Rabbit serum linear peptides) [3]: 0.1; Binding of a rabbit serum to looped/cyclic peptides of protein N of SARS-CoV Urbani (Rabbit serum looped peptides) [3]: 0.3; Binding of Control Serum Blood-Bank to Looped peptides [4]: 0.5; Binding of Control serum Blood-bank to linear peptides [4]: 0.6; Binding of Control serum LUMC to linear peptides [4]: 0.6; Binding of Control serum LUMC to looped peptides [4]: 0.6
ASAFFGMSRIGMEVT	0.1	0.2	0.2	0.3	0.3	0.2	0.2	0.3	0.2	0.1	0.7	0.5	0.7	0.4	0.8	0.3	0.3	0.3	0.7	0.6	Binding of a rabbit serum to linear peptides of protein N of SARS-CoV Urbani (Rabbit serum linear peptides) [3]: 0.1; Binding of a rabbit serum to looped/cyclic peptides of protein N of SARS-CoV Urbani (Rabbit serum looped peptides) [3]: 0.5; Control Serum Blood-Bank Looped peptides [4]: 0.5; Control serum Blood-bank linear peptides [4]: 0.7; Control serum LUMC linear peptides [4]: 0.7; Control serum LUMC looped peptides [4]: 0.4
ASLPYGANKEGIVWV	0.1	0.3	0.2	0.4	0.1	0.3	0.2	0.7	0.1	0.3	0.6	1.0	0.5	1.0	0.4	0.6	0.1	0.8	0.5	0.3	Binding of a rabbit serum to linear peptides of protein N of SARS-CoV Urbani (Rabbit serum linear peptides) [3]: 0.2; Binding of a rabbit serum to looped/cyclic peptides of protein N of SARS-CoV Urbani (Rabbit serum looped peptides) [3]: 0.2; Binding of Control Serum Blood-Bank to Looped peptides [4]: 0.9; Binding of Control serum Blood-bank to linear peptides [4]: 0.7; Binding of Control serum LUMC to linear peptides [4]: 0.6; Binding of Control serum LUMC to looped peptides [4]: 0.8
